The target of this test is T1, Uracil phosphoribosyltransferase (Escherichia coli (strain K12), UniProt P0A8F0).
T1 sequence (P0A8F0 whole entry): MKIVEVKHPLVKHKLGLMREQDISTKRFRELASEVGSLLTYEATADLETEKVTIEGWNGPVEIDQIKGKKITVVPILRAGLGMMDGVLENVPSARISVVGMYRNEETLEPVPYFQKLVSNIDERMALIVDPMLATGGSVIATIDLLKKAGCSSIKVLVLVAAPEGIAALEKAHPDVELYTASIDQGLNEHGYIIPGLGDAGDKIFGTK
The test is described as follows: Inhibition of Escherichia coli K-12 MTCC 1302 UPRT activity by spectrophotometry.

For orientation: Ki means a measure of affinity in units of concentration, obtained from inhibition or displacement. As to `O=c1[nH]cc(F)c(=O)[nH]1` [FLUOROURACIL], the Ki was found to be 13 µM.

These data come from ChEMBL document CHEMBL3044650, “Interaction studies of E. coli uracil phosphoribosyltransferase with 5-fluorouracil for potent anti cancer activity” (Med Chem Res, 2012).
